Data published in patent US20210315921A1, “Compounds and Methods for Modifying iAge” (Edifice Health, Inc,, priority 2020, published 2021).

Tests used:
[1] = test system: estrogen levels; details: while raising testosterone levels; cited from earlier work
[2] = test system: Mouse thoracic aortas; test: Acetylcholine relaxation of mouse thoracic aortic rings after exposure to MIG (wire myograph); details: mouse thoracic aortic sections, precontracted with U46619, increasing concentrations of recombinant mouse MIG
Description: Mouse thoracic aortas were carefully dissected, and vessels were cut into small rings and mounted on an isometric wire myograph chambers (Danish Myo Technology) and subjected to a normalization protocol. Following normalization, the vessels were incubated with either PBS or different concentrations of recombinant mouse MIG (R&D systems, catalog number 492-MM). A concentration-dependent contraction curve was created by accumulative application of the prostaglandin agonist U46619. Subsequently, concentration-dependent relaxation curves of Acetylcholine were conducted on these vessels and percent relaxation calculated for each dose.

| Molecule | reduction of estrogen levels [1] [%] | effect on vasorelaxation to Acetylcholine [2] |
| --- | --- | --- |
| N#Cc1ccc(C(c2ccc(C#N)cc2)n2cncn2)cc1 [Letrozole] | 98 | – |
| MIG: recombinant mouse MIG (R&D systems, catalog number 492-MM), monokine induced by gamma interferon (protein, UniProt P18340 22-126, looked up) C-X-C motif chemokine 9: TLVIRNARCSCISTSRGTIHYKSLKDLKQFAPSPNCNKTEIIATLKNGDQTCLDPDSANVKKLMKEWEKKISQKKKQKRGKKHQKNMKNRKPKTPQSRRRSRKTT | – | dose-dependent effect on vasorelaxation |
